In US5480892A, “(N-phthalimidoalkyl)piperidines” (The Du Pont Merck Pharmaceutical Company, priority 1994, dated 1996):
Read-outs that look alike come from different tables or passages of the source.

Key:
[1] = tested on: isolation-induced aggression in mice; experiment: Isolation-Induced Aggression in Mice; assay type: in vivo, mouse (male Balb/c); conditions: for ED50: Mus musculus, po, 0.25 h, read-out: Inhibition of Isolation-induced Aggression (ED50 class)
[2] = tested on: mescaline-induced scratching in mice; experiment: Mescaline-Induced Scratching in Mice; assay type: in vivo, mouse (male CF1); conditions: Mus musculus, 0.75 h, mescaline 25 mg/kg orally, 10 mg/kg po, read-out: Inhibition of Mescaline Scratch (ED50 class)
Description: This is a modification of the procedure of Fellows and Cook (in Psychotropic Drugs, ed. by S. Garrattini and V. Ghatti, pp. 397-404, Elsevier, Amsterdam, 1957) and Deegan and Cook (J. Pharmacol. Exp. Ther. 122: 17A, 1958). Male CF1 Mice (Charles River) were injected orally with test compound and placed singly into square (13 cm) Plexiglass observation chambers. Twenty minutes later mice were injected orally with mescaline (25 mg/kg). Beginning 25 minutes after treatment with mescaline (45 minutes after treatment with test compound), scratching episodes were counted during a 5 minute observation period. A scratching episode is defined as a brief (1-2 sec) burst of scratching either the head or the ear with the hind foot.

Sigma receptor = molecular target: T1, Sigma receptor (Cavia porcellus, UniProt Q60492); experiment: Sigma Receptor Binding Assay; assay type: guinea pig (male Hartley), brain membranes; conditions: 1 nM (+)-[3H]SKF 10,047, guinea pig brain membranes, pH 7.4, 45 min room temperature; read-out: Receptor Binding Affinity Sigma (Ki class)
T1 construct: Brain membranes were prepared by the method of Tam; from tissue; host or cells: guinea pig whole brain membranes

in vivo = conditions: rat, po
[3] = tested on: PCP-induced turning behavior in rats; experiment: PCP-Induced Turning Behavior in Rats; assay type: in vivo, rat (male Sprague-Dawley); conditions: for ED50: Rattus norvegicus, po, 6-OHDA lesioned rats, drug p.o. 20 min before, PCP 1.5 mg/kg s.c., read-out: Inhibition of PCP-induced Turning (ED50 class)
Description: Male Sprague-Dawley rats (CD/CR, Charles River), weighing 190-290 g, were used for surgery. In order to spare […] neurons, rats were injected with 25 mg/kg imipramine intraperitoneal (i.p.) 30 min before surgery. The rats were anesthetized with a 1:1.2 ratio mixture of Xylazine:Ketamine given 0.1 mL/100 g body weight intramuscular (i.m.). A Ringers-Wydaze (100:0.01) solution was given to prevent dehydration. Dopamine was depleted in the right striatum by injecting the neurotoxin 6-hydroxydopamine (6-OHDA) into the substantia nigra of the right cerebral hemisphere. Five mg of 6-OHDA was dissolved in 5 mL of a 0.04% ascorbic acid solution which had been deoxygenated with nitrogen. Five μL of the 6-OHDA solution was injected into the substantia nigra through a 26 gauge needle over a five min period. Stereotaxic injection coordinates were -2.5 mm posterior to bregma, -2.1 mm right of the midsagittal suture, and -8.6 mm below the skull surface with the incisor bar set at +5.0 mm. Following surgery they were given 10 days to recover while housed four per cage (45.0 L×20.0 H×26.0 W) with ALPHA-dri bedding and ad lib access to Pro-Lab rodent chow and deionized water. […] At all times they were housed in the animal care facility under a 12--12 hour light/dark cycle (light on at 6:00 h, light off at 18:00 h).
Rotation rate and direction were determined with Coulbourn Instruments Rotometry Monitors. Clockwise and counter clockwise rotations were recorded at 30 and 60 min intervals. The rats were examined for correct lesion location by testing for rotational activity induced by subcutaneous (s.c.) injections of 3.0 mg/kg D-amphetamine SO4, and 2.0 mg/kg PCP HCl, respectively. These drugs were administered in the following sequence: Amphetamine was given 30 sec before testing. […]
The data was analyzed with an analysis of variance statistical test, and individual comparisons of each dose of test drug to control were made with Dunnett's multiple range test. The ED50 was calculated with a Litchfield and Wilcoxon test using percent of control values.

Dopamine (D-2) receptor = molecular target: T2, Dopamine (D-2) receptor (Cavia porcellus, UniProt H0VE83); experiment: Dopamine Receptor Binding; assay type: guinea pig, striatum membranes; conditions: 0.15 nM [3H]spiperone, guinea pig striatum, pH 7.7, 15 min 37° C.; read-out: Receptor Binding Affinity Dopamine (D-2) (Ki class)
T2 construct: Membranes were prepared from guinea pig striatum; from tissue; host or cells: guinea pig striatum membranes

catalepsy in rats [4] = conditions: rat, in vivo
catalepsy in rats [5] = experiment: Induction of Catalepsy; conditions: statement on Table III
[6] = mice, p.o., 15 min after dosing

T1 sequence (Q60492 whole entry): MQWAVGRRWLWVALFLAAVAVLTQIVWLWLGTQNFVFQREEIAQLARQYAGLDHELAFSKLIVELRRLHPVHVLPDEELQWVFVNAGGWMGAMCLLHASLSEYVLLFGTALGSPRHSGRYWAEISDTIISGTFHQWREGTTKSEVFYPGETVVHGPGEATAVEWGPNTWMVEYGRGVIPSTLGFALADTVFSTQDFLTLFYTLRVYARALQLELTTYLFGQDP
T2 sequence (H0VE83 1-446): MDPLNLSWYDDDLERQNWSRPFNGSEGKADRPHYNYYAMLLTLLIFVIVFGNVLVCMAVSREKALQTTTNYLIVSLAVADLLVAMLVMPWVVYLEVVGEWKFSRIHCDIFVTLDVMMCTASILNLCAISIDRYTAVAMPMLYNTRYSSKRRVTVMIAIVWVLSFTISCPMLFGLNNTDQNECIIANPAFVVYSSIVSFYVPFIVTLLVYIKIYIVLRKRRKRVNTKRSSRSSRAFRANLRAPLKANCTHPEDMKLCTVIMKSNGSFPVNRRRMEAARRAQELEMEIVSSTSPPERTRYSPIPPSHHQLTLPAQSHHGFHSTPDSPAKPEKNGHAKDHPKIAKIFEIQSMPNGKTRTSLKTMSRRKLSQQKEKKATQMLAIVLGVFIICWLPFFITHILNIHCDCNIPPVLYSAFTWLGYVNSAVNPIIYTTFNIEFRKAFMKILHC

| Ki (Sigma receptor) [nM] | Ki (Dopamine (D-2) receptor) [nM] | SMILES | ED50 [1, 6] [mg/kg] | ED50 [2] [mg/kg] | ED50 (in vivo) [mg/kg] | ED50 [3] [mg/kg] | producing catalepsy (catalepsy in rats [4]) | ED50 [1] [mg/kg] | inhibiting the isolation-induced aggressive behavior ([1]; statement on Table II) | inhibiting PCP-induced turning behavior ([3]; statement on Table III, rats) | producing catalepsy (catalepsy in rats [5]) |
| --- | --- | --- | --- | --- | --- | --- | --- | --- | --- | --- | --- |
| 1 to 30 |  | CC(C)CC1C2=C(CCCC2)C(=O)N1CC1CCN(CCc2ccccc2)CC1 (stereo not drawn) [Example 139] | < 11 | < 11 |  |  |  |  |  |  |  |
| 1 to 30 | > 500 | O=C1[C@H]2CCCC[C@H]2C(=O)N1CC1CCN(CCc2ccccc2)CC1 [Example 3, 2-[1-(2-Phenylethyl)-4-piperidinylmethyl]-cis-3a,4,5,6,7,7a-hexahydro-1H-isoindole-1,3(2H)-dione] | 11 to 20 |  | > 70 | 21 to 70 | does not produce catalepsy |  |  |  |  |

Second part, the compound before the results:

| SMILES | Ki (Sigma receptor) [nM] | Ki (Dopamine (D-2) receptor) [nM] | ED50 [1, 6] [mg/kg] | ED50 [2] [mg/kg] | ED50 (in vivo) [mg/kg] | ED50 [3] [mg/kg] | producing catalepsy (catalepsy in rats [4]) | ED50 [1] [mg/kg] | inhibiting the isolation-induced aggressive behavior ([1]; statement on Table II) | inhibiting PCP-induced turning behavior ([3]; statement on Table III, rats) | producing catalepsy (catalepsy in rats [5]) |
| --- | --- | --- | --- | --- | --- | --- | --- | --- | --- | --- | --- |
| O=C1C2=C(CCCC2)C(c2ccc(F)cc2)N1CC1CCN(CCc2ccccc2)CC1 (stereo not drawn) [Example 136] | 31 to 100 |  | < 11 | < 11 |  |  |  |  |  |  |  |
| O=C(CCCN1CCC(O)(c2ccc(Cl)cc2)CC1)c1ccc(F)cc1 [haloperidol, reference compound] |  |  |  |  | < 11 | < 11 |  | < 11 | potent activities | potent activity | very potent in producing catalepsy |
| CCCCCCC1C2=C(CCCC2)C(=O)N1CC1CCN(CCc2ccccc2)CC1 (stereo not drawn) [Example 138] | 1 to 30 |  | < 11 | < 11 |  |  |  |  |  |  |  |
